Key:
[1] = tested on: ERRα; assay: Immunocytochemistry for ERRα on bone nodules after oligonucleotide treatment; format: cell-based, rat; settings: 24 h of treatment; 1 μM
Description: Immunolabelling of cultures was done essentially as described previously (Turksen, 1991; Turksen, 1992). Cultures were rinsed with PBS, fixed with 3.7% formaldehyde in PBS and permeabilized with methanol at −20° C. Frozen sections were fixed 10 min in cold acetone. Paraffine sections were treated deparaffined in xylene, then rehydrated in 100%, 95% and 70% ethanol and water. After rinsing, cells in dishes or frozen, paraffine sections were incubated for 1 h at room temperature with 10% normal serum in PBS for ERRα and ERα and in 3% BSA in PBS (denaturated) for ERβ OCN, ALP, OPN, and BSP. After rinsing, cells or sections were incubated for 1.5 hours with appropriate dilutions of primary antibodies (1/50, anti-ERRα; anti-ERα or anti-ERβ (MC-20 or Y-19, respectively; Santa Cruz Biotechnology, Inc))(Shim et al, 1999; Saji et al, 2000; Tremblay et al 1999). The anti-rat OCN antiserum was kindly provided by Dominique Modrowski (INSERM U349, Hopital Lariboisiere, Paris, France) and used at 1/100 dilution. The anti-OPN MPIIIB10) and anti-BSP (WWVIDI) antibodies were purchased from the Hybridoma Bank (Iowa City, Iowa) and used at a 1/800 and 1/500 dilution respectively. […]

[2] = tested on: ALP, BSP, OPN, OCN, cbfa1, COLLI, Cyclin D1, c-Fos, Bcl2, Bax; assay: RT-PCR of osteoblast, proliferation and apoptosis markers in antisense-treated RC cells; format: cell-based, rat
Description: Samples of total cellular RNA (1.5-5 μg) were reverse-transcribed using oligo dT and the first strand synthesis kit of Superscript™ II, Gibco BRL. PCR was performed with specific primers specific for ERRα. Primers, located in different exons, were as follows: […]
Osteoblast-associated and other markers were also amplified by PCR using specific primers for rat OCN, OPN, ALP, BSP, Cbfa1, COLL I (collagen type I α chain), C-fos, Cyclin D1, Bax and Bcl-2. PCR was done for 25 cycles (94° C. for 1 min, 55° C. for 1 min, 72° C. for 1 min and a final elongation step of 7 min at 72° C.) for OCN, OPN, ALP, BSP, L32, Bax and 30 cycles for Bcl-2, 32 cycles for c-Fos, 35 cycles for Cyclin D1 and Cbfa1 (with annealing temperatures of 58° C. and 62° C. respectively and 23 cycles for COLLI with annealing temperature of 59° C.
(§1) The resuspended RC cells were plated in 24 wells plates at 10^4 cells/well. Antisense oligonucleotide inhibition of ERRα expression was accomplished with a 20-base phosphorotbioate-modified oligonucleotide, localized to the A/B domain. The ERRα antisense oligonucleatide sequence was: 5′[…]-3′(SEQ ID NO:30). Control dishes were treated with the complementary sense oligonucleotide or no oligonucleotide. Preliminary experiments were done to determine effective oligonucleotide concentrations that were not toxic. […] Medium was changed every 2 days and fresh oligonucleotides were added. mRNA was collected at day 6 for the proliferation experiments and at day 15 for the differentiation experiments. Nodules were counted at 15 days.

[3] = tested on: primary rat calvaria (RC) cells; assay: Mineralized bone nodule formation (von Kossa) in RC cell cultures treated with antisense/sense oligonucleotides; format: cell-based; settings: for decrease in mineralized bone nodule formation: treated day 5 to day 11; for decrease in mineralized bone nodule number: treated days 1-6 then normal differentiation medium, day 15
Description: (§2) Cells were enzymatically isolated from the calvaria of 21 d Wistar rat fetuses by sequential digestion with collagenase as described previously (Bellows, 1986). Cells obtained from the last four of the five digestion steps (populations II-V) were pooled and plated in T-75 flasks in α-MEM containing 15% heat-inactivated FBS (Flow Laboratories, McLean, Va.) and antibiotics comprising […] penicillin G (Sigma Chemical Co., St. Louis, Mo.), […] gentamycin (Sigma), and […] fungizone (Flow Laboratories). After 24 h incubation, attached cells were washed with PBS to remove nonviable cells and other debris, and then collected by trypsinization using 0.01% trypsin in citrate saline. Aliquots were counted with a Coulter Counter (Coulter Electronics, Hialeah Fla.), and the remaining cells were resuspended in the standard medium described above. The resuspended cells were plated into 100 mm tissue culture dishes at 10^5 cells/dish, into 35 mm tissue culture dishes at 2×10^4/dish and in 24 wells plates at 10^4 cells/well. […] Medium was changed every 2 days. All dishes were incubated at 37° C. in a humidified atmosphere in a 95% air/5% CO2 incubator.
For quantification of nodule formation, dishes or wells were fixed and stained by the Von Kossa technique and bone nodules were counted on a grid (Bellows et al., 1986; Bellows and Aubin, 1989). Results are plotted as the mean number of nodules±SD of three wells for controls and each concentration of antisense or sense primers and five dishes for pcDNA3 control and pcDNA3-ERRα.
as §1

[4] = tested on: primary rat calvaria (RC) cells; assay: Cell number (cell counting) in RC cell cultures treated with ERRα antisense/sense oligonucleotides; format: cell-based
Description: as §2
For cell growth analysis, the cell layers were rinsed in PBS, released with trypsin and collagenase (1:1, vol/vol, of solutions described above), and the harvested cells were counted electronically. Results are plotted as the average of three counts for each of three dishes for control and pcDNA3-ERRα or three wells for each concentration of antisense or sense primers used.
as §1

[5] = tested on: ERRα mRNA; assay: ERRα mRNA expression (Northern blot) in RC cells treated with hormones or growth factors; format: cell-based, rat; settings: for effect of acute exposure on ERRα mRNA levels: 24 hours beginning at day 9 or day 15 (E2, D3) or day 7 and day 15 (TGFβ); for stimulation of ERRα mRNA expression at times later than day 6 / stimulation (increase) of ERRα mRNA expression: RC cells treated continuously; for stimulation (increase) of ERRα mRNA expression: E2 10^−8M, D3 10^−9M, TGFβ 10^−10 M
Description: as §2
Total RNA was extracted with guanidine from RC cells at different times of the culture corresponding to different stages of proliferation, differentiation and bone nodule formation (Current Protocols in Molecular Biology, vol. 1, 1996). Northern blots were prepared and hybridized with a 750bp fragment corresponding to the rat 3′ UTR of ERRα according to standard procedures (Chirgwin et al, 1979). Rat α1 COLL-I (Genovese et al.) was a 900bp cDNA PstI fragment containing the entire 3′ noncoding region and one-half of the C-terminal of the propeptide of the α1 chain of type I. Rat bone/liver/kidney ALP (Noda et al., 1987) was a 600 bp cDNA EcoRI fragment obtained by digesting pRAP54 with BssHII-XhoI to remove 1.8 kb of the 5′ region and religating the blunt ends. Rat OPN was a 700 bp cDNA BamHI-EcoRI fragment obtained by digesting the full length cDNA with PvuI to remove 800 bp of 5′ region and ligating the blunt ended fragment into SmaI cut pGEM-7Zf(+) vector (Promega, Madison, Wis.). Rat OCN was a partial cDNA containing 350 bp of the 3′ UTR isolated with OCN-specific primers from a λgt11 library prepared from ROS 17/2.8 cells, rat BSP was a partial cDNA containing 500bp of 3′ region isolated with BSP-specific primers from a λgt11 library prepared from RC cells forming bone nodules, and rat L32 was generated from RC cell mRNA by PCR using specifics primers; the identities of the OCN, BSP and L32 probes were confirmed by sequencing (Liu et al., 1994).

[6] = treated days 1-6, day 15, vs control or sense-treated

“5′TCACCGGGGGTTCAGTCTCA-3′(SEQ ID NO:30) (all phosphorothioate, sugars by position and methylation of C not given here) [antisense oligonucleotide]” was tested, and the “ERRα detection in bone nodules” value [1] was “almost undetectable”, the ALP expression ([2]; treated day 5 to day 11) was “not affected” and the BSP expression ([2]; treated day 5 to day 11) was “decreased”. For the same compound, the COLLI expression ([2]; treated day 5 to day 11) was “not affected”, the OCN expression ([2]; treated day 5 to day 11) was “decreased” and the OPN expression ([2]; treated day 5 to day 11) was “not affected”. The cbfa1 expression ([2]; treated day 5 to day 11) was “decreased”, the ALP expression ([2]; treated days 1-6, day 6) was “not significantly affected” and the BSP expression ([2]; treated days 1-6, day 6) was “reduced significantly”. For the same compound, the Bax expression ([2]; treated days 1-6, day 6) was “not significantly affected”, the Bcl2 expression ([2]; treated days 1-6, day 6) was “not significantly affected” and the COLLI expression ([2]; treated days 1-6, day 6) was “not significantly affected”. The “Cyclin D1 expression” value ([2]; treated days 1-6, day 6) was “reduced but it did not reach statistical significance”, the OPN expression ([2]; treated days 1-6, day 6) was “not significantly affected” and the c-Fos expression ([2]; treated days 1-6, day 6) was “not significantly affected”. The cbfa1 expression ([2]; treated days 1-6, day 6) was “reduced significantly”, the COLLI expression ([2]; treated days 1-6, day 15) was “not significantly altered” and the OCN expression ([2]; treated days 1-6, day 15) was “not significantly altered”. The OPN expression ([2]; treated days 1-6, day 15) was “not significantly altered”, the ALP expression [2, 6] was “remained lower” and the BSP expression [2, 6] was “remained lower”. For the same compound, the ALP expression ([2]; treated days 9-15) was “not BSP, COLLI or ALP were decreased”, the BSP expression ([2]; treated days 9-15) was “not BSP, COLLI or ALP were decreased” and the COLLI expression ([2]; treated days 9-15) was “not BSP, COLLI or ALP were decreased”. For the same compound, the OCN expression ([2]; treated days 9-15) was “decreased”, the OPN expression ([2]; treated days 9-15) was “decreased” and the “decrease in mineralized bone nodule formation” value ([3]; 0.5 μM) was 30%. The “decrease in mineralized bone nodule formation” value ([3]; 1 μM) was 60%, the “decrease in mineralized bone nodule formation” value ([3]; 2 μM) was 100% and the “decrease in mineralized bone nodule number” value ([3]; 1 μM) was 29%. For the same compound, the “decrease in mineralized bone nodule number” value ([3]; 2 μM) was 45%, the “decrease in the number of mineralized bone nodules formed” value ([3]; treated days 9-15, 1 μM) was 17% and the “decrease in the number of mineralized bone nodules formed” value ([3]; treated days 9-15, 2 μM) was 27%. For the same compound, the “surface area covered by bone nodules that did form” value ([3]; treated days 9-15, compared to control cultures) was “greater surface area”, the “decrease in cell number” value ([4]; RC cells treated days 1-6, counted at day 6, 1 μM, vs sense or untreated controls) was 30% and the “decrease in cell number” value ([4]; RC cells treated days 1-6, counted at day 6, 2 μM, vs sense or untreated controls) was 40%. The “decrease in cell number” value ([4]; treated day 5 to day 11, by day 15, 1 μM) was 19% and the “decrease in cell number” value ([4]; treated day 5 to day 11, by day 15, 2 μM) was 35%.
In the case of `C=C1/C(=C\C=C2/CCC[C@]3(C)[C@@H]([C@H](C)CCCC(C)(C)O)CC[C@@H]23)C[C@@H](O)C[C@@H]1O` [D3, 1,25(OH)2 vitamin D3], the “effect of acute exposure on ERRα mRNA levels” value [5] is reported as “no effect”, the “stimulation of ERRα mRNA expression at times later than day 6” value [5] is reported as “not later” and the “stimulation (increase) of ERRα mRNA expression” value ([5]; day 6) is reported as 47%.
In the case of `C[C@@H]1C[C@H]2[C@@H]3CCC4=CC(=O)C=C[C@]4(C)[C@@]3(F)[C@@H](O)C[C@]2(C)[C@@]1(O)C(=O)CO` [Dex, dexamethasone], the “effect of acute treatment on ERRα expression level” value ([5]; 24 hour acute treatment of RC cells at day 9 or day 15) is reported as “no effect”.
In the case of `CCCCC[C@H](O)/C=C/[C@H]1[C@H](O)CC(=O)[C@@H]1C/C=C\CCCC(=O)O` [PGE2], the “effect on ERRα expression” value ([5]; RC cells, PGE2 10^−9 M, Dex) is reported as “Neither PGE2 nor Dex had any significant effect”.
For PTH-1-34: 1-34 PTH (Sigma), the “decrease of ERRα after acute exposure” value ([5]; acute exposure at day 7) was 25%, the “decrease of ERRα after acute exposure” value ([5]; acute exposure at day 16) was 33% and the “inhibition of ERRα” value ([5]; continuous 10^−11 M, day 6) was 15%. The “increase of ERRα” value ([5]; continuous 10^−11 M, day 12) was 20% and the “inhibition of ERRα” value ([5]; continuous 10^−11 M, day 15) was 26%.
TGFβ was tested, and the “effect of acute exposure on ERRα mRNA levels” value [5] was “no effect”, the “stimulation of ERRα mRNA expression at times later than day 6” value [5] was “not later” and the “stimulation (increase) of ERRα mRNA expression” value ([5]; day 6) was 400%.

— US7585637B2, “Estrogen related receptor, ERRα, a regulator of bone formation” (priority 1999, dated 2009)
